In paper PMC5888870 (2018):

Key:
[1] = test system: 5'-biotin-TEG KRAS (DNA, G4) AGGGCGGTGTGGGAAGAGGGAAGAGGGGGAGGCAG; experiment: SPR; conditions: 30 mM KCl; 10 mM Tris pH 6.6, 3% DMSO, 0.01% Tween-20; no binding at 20 μM
[2] = test system: Alexafluor647-KRAS (DNA, G4) AGGGCGGTGTGGGAAGAGGGAAGAGGGGGAGGCAG; experiment: fluorescence intensity titration; conditions: 50 mM KCl, 25 mM Tris pH 6.4, 2-3% DMSO, room temperature; for KDapp: apparent
[3] = test system: KRAS G4 (DNA, G4) AGGGCGGTGTGGGAAGAGGGAAGAGGGGGAGGCAG; experiment: CD thermal melt; conditions: 30 mM KCl; 10 mM Tris pH 6.6, 1% DMSO; 10 μM DNA, 40 μM compound
[4] = test system: shortened KRAS oligonucleotide (DNA, G4) AGGGCGGTGTGGGAATAGGGAA; experiment: 1H NMR titration; conditions: 50 mM KCl, 100 μM DNA
[5] = test system: 5'-biotin-TEG KRAS (DNA, G4) AGGGCGGTGTGGGAAGAGGGAAGAGGGGGAGGCAG; experiment: SPR, steady state; conditions: 30 mM KCl; 10 mM Tris pH 6.6, 3% DMSO, 0.01% Tween-20; apparent; text b35 prints 12.0 ± 0.5
[6] = test system: shortened KRAS oligonucleotide (DNA, G4) AGGGCGGTGTGGGAATAGGGAA; experiment: WaterLOGSY NMR; conditions: 50 mM KCl, 25 mM Tris-d11 pH 6.6, 10% DMSO-d6, 293 K, 100 μM compound, 1 μM DNA
[7] = test system: KRAS G4 (DNA, G4) AGGGCGGTGTGGGAAGAGGGAAGAGGGGGAGGCAG; experiment: 13C NMR; conditions: 50 mM KCl; 25 mM Tris-d11 pH 6.6, 10% DMSO-d6, 293 K
[8] = test system: 5'-biotin-TEG KRAS (DNA, G4) AGGGCGGTGTGGGAAGAGGGAAGAGGGGGAGGCAG; experiment: SPR, Langmuir kinetic fit; conditions: 30 mM KCl; 10 mM Tris pH 6.6, 3% DMSO, 0.01% Tween-20
[9] = test system: dsDNA (DNA, duplex) CAATCGGATCGAATTCGATCCGATTG; experiment: CD thermal melt; conditions: 30 mM KCl; 10 mM Tris pH 6.6, 1% DMSO; 10 μM DNA, 40 μM compound
[10] = test system: Alexafluor647-RB1 (DNA, G4) CGGGGGGTTTTGGGCGGC; experiment: small molecule microarray; conditions: 100 mM KCl; PBST, room temperature, 500 nM DNA; immobilised compound
[11] = test system: Alexafluor647-MYC (DNA, G4) AGGGTGGGGAGGGTGGGG; experiment: small molecule microarray; conditions: 100 mM KCl; PBST, room temperature, 500 nM DNA; immobilised compound
[12] = test system: Alexafluor647-VEGF (DNA, G4) CGGGGCGGGCCGGGGGCGGGGT; experiment: small molecule microarray; conditions: 100 mM KCl; PBST, room temperature, 500 nM DNA; immobilised compound
[13] = test system: Alexafluor647-KRAS (DNA, G4) AGGGCGGTGTGGGAAGAGGGAAGAGGGGGAGGCAG; experiment: small molecule microarray; conditions: 100 mM KCl; PBST, room temperature, 500 nM DNA; immobilised compound
[14] = test system: Alexafluor647-BCl2 (DNA, G4) AGGGGCGGGCGCGGGAGGAAGGGGGCGGGA; experiment: small molecule microarray; conditions: 100 mM KCl; PBST, room temperature, 500 nM DNA; immobilised compound
[15] = test system: Alexafluor647-AKTIP (RNA, G4) GGGGUGGGGCGGGGCGGGG; experiment: small molecule microarray; conditions: 100 mM KCl; PBST, room temperature, 500 nM RNA; immobilised compound
[16] = test system: Alexafluor647-c-KIT (DNA, G4) AGGGAGGGCGCTGGGAGGAGGG; experiment: small molecule microarray; conditions: 100 mM KCl; PBST, room temperature, 500 nM DNA; immobilised compound
[17] = test system: Alexafluor647-MYB (DNA, G4) GGAGGAGGAGGTCACGGAGGAGGAGGAGAAGGAGGAGGAGGA; experiment: small molecule microarray; conditions: 100 mM KCl; PBST, room temperature, 500 nM DNA; immobilised compound

`CC(C)NC(=N)NC(=N)Nc1ccc(Cl)cc1` gave a KD [1] greater than 20 µM, a KDapp ([2]; only minimal fluorescence changes) greater than 200 µM and a ΔTm [3] of less than 1 °C. For the same compound, the binding ([4]; 25 mM Tris-d11 pH 6.6, 10% DMSO-d6, 293 K, weak, nonspecific) was “weak”.
With `CCCCC(CC)CNC(=N)NC(=N)NCCCCCCNC(=N)NC(=N)NCC(CC)CCCC` (stereo not shown) the KDapp ([2]; 50 nM DNA) was 19.3 ± 11.0 µM, the ΔTm [3] was 7.1 ± 0.6 °C and the binding ([4]; 25 mM Tris-d11 pH 6.6, 10% DMSO-d6, 293 K, moderate, nonspecific) was “yes”. It also gave a KDapp [5] of 12.1 ± 0.5 µM.
In the case of `CN[C@H](C(=O)O)C(C)C`, the binding ([6]; internal control) is reported as “no”.
`N=C(NCCCCCCNC(=N)NC(=N)Nc1ccc(Cl)cc1)NC(=N)Nc1ccc(Cl)cc1` was tested, and the binding [7] was “yes”, the binding [6] was “yes” and the KD ([2]; 50 nM DNA) was 0.0055 ± 0.0029 mM. The ΔTm [3] was 13.0 ± 0.7 °C, the binding ([4]; 25 mM Tris-d11 pH 6.6, 10% D2O, 5% DMSO-d6, 293 K) was “yes” and the KD [8] was 1.1 ± 0.5 µM. For the same compound, the binding [9] was “no”.
`NCCOc1cc(C(=O)Nc2cc(OCCN)c3ccccc3n2)nc(C(=O)Nc2cc(OCCN)c3ccccc3n2)c1` was tested, and the binding [10] was “yes”, the binding [11] was “yes” and the binding [12] was “yes”. The binding [13] was “yes”, the binding [14] was “yes” and the binding [15] was “yes”. The ΔTm [3] was 31.6 ± 2.6 °C, the binding [16] was “yes” and the binding [17] was “yes”.
